# Measurements published in US20100035756A1, “TRIAZOLOPHYRIDINE DERIVATIVES AS HERBICIDES” (SYNGENTA LIMITED, priority 2006, published 2010).
# How the values were obtained:
# Format in all cases: in vivo
# [1] = test system: Stellaria media; assay: Microscreen (pre-emergence), Example B3; settings: preemergent application, 250 g/ha, evaluated 8 days later, 100%=total damage
# [2] = test system: Monocotyledonous and dicotyledonous test plants; assay: Herbicidal action after emergence of the plants (post-emergence herbicidal action), Example B2; settings: postemergent application, 125 g/ha, 2- to 3-leaf stage, evaluated after 2-3 weeks, 100%=total damage
# Summary of the method: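 Sprayed at 2- to 3-leaf stage as aqueous suspension (wettable powder) or emulsion (emulsifiable concentrate) at 125 g/ha; plants grown on in greenhouse. Damage scored after 2–3 weeks (100% = total damage, 0% = none).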
# [3] = test system: Agrostis tenuis; assay: Microscreen (pre-emergence), Example B3; settings: preemergent application, 250 g/ha, evaluated 8 days later, 100%=total damage
# [4] = test system: Digitaria sanguinalis; assay: Microscreen (pre-emergence), Example B3; settings: preemergent application, 250 g/ha, evaluated 8 days later, 100%=total damage
# [5] = test system: Nasturtium officinale; assay: Microscreen (pre-emergence), Example B3; settings: preemergent application, 250 g/ha, evaluated 8 days later, 100%=total damage
# [6] = test system: Solanum nigrum; assay: Microscreen (pre-emergence), Example B3; settings: preemergent application, 250 g/ha, evaluated 8 days later, 100%=total damage
# [7] = test system: Setaria italica; assay: Microscreen (pre-emergence), Example B3; settings: preemergent application, 250 g/ha, evaluated 8 days later, 100%=total damage
# [8] = test system: Monocotyledonous and dicotyledonous test plants; assay: Herbicidal action prior to emergence of the plants (pre-emergence action), Example B1; settings: preemergence application, 250 g/ha, evaluated after 4 weeks, 100%=total damage, 0%=no damage
# Summary of the method: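 Monocot and dicot species were sown in standard soil and sprayed pre-emergence, right after sowing, at 250 g/ha as an aqueous suspension or emulsion. Plants were grown in a greenhouse for 4 weeks. Damage was scored from 0% (none) to 100% (total).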
# [9] = test system: Amaranthus retroflexus; assay: Microscreen (pre-emergence), Example B3; settings: preemergent application, 250 g/ha, evaluated 8 days later, 100%=total damage
Compound,"herbicidal damage, Stellaria [1] [%]","herbicidal damage, ABUTH [2] [%]","herbicidal damage, AMARE [2] [%]","herbicidal damage, CHEAL [2] [%]","herbicidal damage, DIGSA [2] [%]","herbicidal damage, SETFA [2] [%]","herbicidal damage, SINAR [2] [%]","herbicidal damage, VERPE [2] [%]","herbicidal damage, XANST [2] [%]","herbicidal damage, Agrostis [3] [%]","herbicidal damage, Digitaria [4] [%]","herbicidal damage, Nasturtium [5] [%]","herbicidal damage, Solanum [6] [%]","herbicidal damage, Setaria [7] [%]","herbicidal damage, ABUTH [8] [%]","herbicidal damage, AMARE [8] [%]","herbicidal damage, BRAPL [8] [%]","herbicidal damage, DIGSA [8] [%]","herbicidal damage, ECHCG [8] [%]","herbicidal damage, SETFA [8] [%]",further results
CCCC1CCC(=O)C(C(=O)c2ccc(C(F)(F)F)n3c(C)nnc23)=C1O (centres unmarked) [41.6],80,80,80,80,80,70,80,80,80,100,90,100,90,0,70,100,60,90,70,70,"herbicidal damage, STEME [8]: 50%; herbicidal damage, VERPE [8]: 50%; herbicidal damage, Amaranthus [9]: 100%"
"Cc1nnc2c(C(=O)C3C(=O)C4CCC(C4)C3=O)ccc(C(F)(F)F)n12 (centres unmarked) [Compound 1.4, 3-(3-Methyl-5-trifluoromethyl-[1,2,4]triazolo[4,3-a]pyridine-8-carbonyl)-bicyclo[3.2.1]octane-2,4-dione]",80,70,70,90,80,90,80,80,70,50,90,90,90,70,100,100,70,100,90,90,"herbicidal damage, STEME [8]: 100%; herbicidal damage, VERPE [8]: 100%; herbicidal damage, Amaranthus [9]: 90%"
CCc1nnc2c(C(=O)C3=C(O)C4CCC(C4)C3=O)ccc(C(F)(F)F)n12 (centres unmarked) [Compound 1.5],60,90,70,80,70,60,80,70,80,100,80,80,100,50,100,100,60,100,60,80,"herbicidal damage, STEME [8]: 100%; herbicidal damage, VERPE [8]: 70%; herbicidal damage, Amaranthus [9]: 30%"
O=C(C1=C(O)C2CCC(C2)C1=O)c1ccc(C(F)(F)F)n2c(C3CC3)nnc12 (centres unmarked) [Compound 1.8],80,90,90,90,80,80,90,100,90,100,100,100,90,100,100,100,100,100,40,60,"herbicidal damage, VERPE [8]: 70%; herbicidal damage, Amaranthus [9]: 0%"
Cc1nnc2c(C(=O)C3=C(O)CCCC3=O)ccc(C(F)(F)F)n12 [Compound 3.4],70,90,80,60,80,80,90,100,80,100,100,80,0,60,80,60,80,70,70,30,"herbicidal damage, STEME [8]: 30%; herbicidal damage, VERPE [8]: 50%; herbicidal damage, Amaranthus [9]: 80%"
Cc1nnc2c(C(=O)C3=C(O)C(C)(C)C(=O)C(C)(C)C3=O)ccc(C(F)(F)F)n12 [Compound 5.3],90,80,70,80,50,50,80,90,90,50,100,100,100,50,100,100,70,100,100,60,"herbicidal damage, STEME [8]: 100%; herbicidal damage, VERPE [8]: 100%; herbicidal damage, Amaranthus [9]: 100%"
